Measurements published in ChEMBL document CHEMBL3044527, “Involvement of melanin synthesis and reactive oxygen species in phytotoxic action of l-DOPA in carrot cells” (2007).
Activity calls are given as the source filed them. The rule behind the calls is not given here.

Tests used:
Assay type in all cases: functional
[1] = tested on: Daucus carota; experiment: Phytotoxicity against Daucus carota (carrot) cells grown in culture assessed as melanin per packed cell volume at 1 mM after 6 days by spectrophotometric analysis in presence of alpha-tocopherol (reference value: 27.2 ug per packed cell volume)
[2] = tested on: Daucus carota; experiment: Phytotoxicity against Daucus carota (carrot) cells grown in culture assessed as melanin per packed cell volume at 1 mM after 4 days by spectrophotometric analysis in presence of alpha-tocopherol (reference value: 21.3 ug per packed cell volume)
[3] = tested on: Daucus carota; experiment: Phytotoxicity against Daucus carota (carrot) cells grown in culture assessed as melanin per packed cell volume at 1 mM after 2 days by spectrophotometric analysis in presence of alpha-tocopherol (reference value: 23.7 ug per packed cell volume)
[4] = tested on: Daucus carota; experiment: Phytotoxicity against Daucus carota (carrot) cells grown in culture assessed as melanin per packed cell volume at 1 mM after 6 days by spectrophotometric analysis in presence of ascorbic acid (reference value: 27.2 ug per packed cell volume)
[5] = tested on: Daucus carota; experiment: Phytotoxicity against Daucus carota (carrot) cells grown in culture assessed as melanin per packed cell volume at 1 mM after 4 days by spectrophotometric analysis in presence of ascorbic acid (reference value: 21.3 ug per packed cell volume)
[6] = tested on: Daucus carota; experiment: Phytotoxicity against Daucus carota (carrot) cells grown in culture assessed as melanin per packed cell volume at 1 mM after 2 days by spectrophotometric analysis in presence of ascorbic acid (reference value: 23.7 ug per packed cell volume)
[7] = tested on: Daucus carota; experiment: Phytotoxicity against Daucus carota (carrot) cells grown in culture assessed as melanin per packed cell volume at 1 mM after 6 days by spectrophotometric analysis (reference value: 27.2 ug per packed cell volume)
[8] = tested on: Daucus carota; experiment: Phytotoxicity against Daucus carota (carrot) cells grown in culture assessed as melanin per packed cell volume at 1 mM after 4 days by spectrophotometric analysis (reference value: 21.3 ug per packed cell volume)
[9] = tested on: Daucus carota; experiment: Phytotoxicity against Daucus carota (carrot) cells grown in culture assessed as melanin per packed cell volume at 1 mM after 2 days by spectrophotometric analysis (reference value: 23.7 ug per packed cell volume)
[10] = tested on: Daucus carota; experiment: Phytotoxicity against Daucus carota (carrot) cells grown in culture assessed as melanin per packed cell volume at 0.1 mM after 6 days by spectrophotometric analysis (reference value: 27.2 ug per packed cell volume)
[11] = tested on: Daucus carota; experiment: Phytotoxicity against Daucus carota (carrot) cells grown in culture assessed as melanin per packed cell volume at 0.1 mM after 4 days by spectrophotometric analysis (reference value: 21.3 ug per packed cell volume)
[12] = tested on: Daucus carota; experiment: Phytotoxicity against Daucus carota (carrot) cells grown in culture assessed as melanin per packed cell volume at 0.1 mM after 2 days by spectrophotometric analysis (reference value: 23.7 ug per packed cell volume)
[13] = tested on: Daucus carota; experiment: Phytotoxicity against Daucus carota (carrot) cells grown in culture assessed as growth inhibition at 1 mM after 2 to 6 days in presence of SOD relative to control
[14] = tested on: Daucus carota; experiment: Phytotoxicity against Daucus carota (carrot) cells grown in culture assessed as growth inhibition at 1 mM after 2 to 6 days in presence of catalase relative to control
[15] = tested on: Daucus carota; experiment: Phytotoxicity against Daucus carota (carrot) cells grown in culture assessed as growth inhibition at 1 mM after 2 to 6 days in presence of alpha-tocopherol relative to control
[16] = tested on: Daucus carota; experiment: Phytotoxicity against Daucus carota (carrot) cells grown in culture assessed as growth inhibition at 1 mM after 6 days in presence of ascorbic acid relative to control
[17] = tested on: Daucus carota; experiment: Phytotoxicity against Daucus carota (carrot) cells grown in culture assessed as growth inhibition at 1 mM after 4 days in presence of ascorbic acid relative to control
[18] = tested on: Daucus carota; experiment: Phytotoxicity against Daucus carota (carrot) cells grown in culture assessed as growth inhibition at 1 mM after 2 days in presence of ascorbic acid relative to control
[19] = tested on: Daucus carota; experiment: Phytotoxicity against Daucus carota (carrot) cells grown in culture assessed as lipid peroxidation at 1 mM after 2 days by TBARS method in presence of alpha-tocopherol relative to control
[20] = tested on: Daucus carota; experiment: Phytotoxicity against Daucus carota (carrot) cells grown in culture assessed as lipid peroxidation at 1 mM after 2 days by TBARS method in presence of ascorbic acid relative to control
[21] = tested on: Daucus carota; experiment: Phytotoxicity against Daucus carota (carrot) cells grown in culture assessed as lipid peroxidation at 1 mM after 4 to 6 days by TBARS method relative to control
[22] = tested on: Daucus carota; experiment: Phytotoxicity against Daucus carota (carrot) cells grown in culture assessed as lipid peroxidation at 1 mM after 2 days by TBARS method relative to control
[23] = tested on: Daucus carota; experiment: Phytotoxicity against Daucus carota (carrot) cells grown in culture assessed as increase in ROS level at 1 mM after 24 hr by MPEC-based chemiluminescence assay in presence of SOD relative to control
[24] = tested on: Daucus carota; experiment: Phytotoxicity against Daucus carota (carrot) cells grown in culture assessed as increase in ROS level at 1 mM after 24 hr by MPEC-based chemiluminescence assay in presence of catalase relative to control
[25] = tested on: Daucus carota; experiment: Phytotoxicity against Daucus carota (carrot) cells grown in culture assessed as increase in ROS level at 1 mM after 24 hr by MPEC-based chemiluminescence assay in presence of ascorbic acid relative to control
[26] = tested on: Daucus carota; experiment: Phytotoxicity against Daucus carota (carrot) cells grown in culture assessed as increase in ROS level after 24 hr by MPEC-based chemiluminescence assay relative to control
[27] = tested on: Daucus carota; experiment: Phytotoxicity against Daucus carota (carrot) cells grown in culture assessed as growth inhibition at 1 mM after 8 days relative to control; details: 192 h, values are per cent of control
[28] = tested on: Daucus carota; experiment: Phytotoxicity against Daucus carota (carrot) cells grown in culture assessed as growth inhibition at 1 mM after 6 days relative to control; details: 144 h, values are per cent of control
[29] = tested on: Daucus carota; experiment: Phytotoxicity against Daucus carota (carrot) cells grown in culture assessed as growth inhibition at 1 mM after 2 days relative to control; details: 48 h, values are per cent of control
[30] = tested on: Daucus carota; experiment: Phytotoxicity against Daucus carota (carrot) cells grown in culture assessed as growth inhibition at 1 mM after 4 days relative to control; details: 96 h, values are per cent of control
[31] = tested on: Daucus carota; experiment: Phytotoxicity against Daucus carota (carrot) cells grown in culture assessed as growth inhibition at 0.1 mM after 8 days relative to control; details: 192 h, values are per cent of control
[32] = tested on: Daucus carota; experiment: Phytotoxicity against Daucus carota (carrot) cells grown in culture assessed as growth inhibition at 0.1 mM after 4 days relative to control; details: 96 h, values are per cent of control
[33] = tested on: Daucus carota; experiment: Phytotoxicity against Daucus carota (carrot) cells grown in culture assessed as growth inhibition at 0.1 mM after 6 days relative to control; details: 144 h, values are per cent of control
[34] = tested on: Daucus carota; experiment: Phytotoxicity against Daucus carota (carrot) cells grown in culture assessed as growth inhibition at 0.1 mM after 2 days relative to control; details: 48 h, values are per cent of control

In the case of N[C@@H](Cc1ccc(O)c(O)c1)C(=O)O [LEVODOPA], the Activity [1] is reported as 28.1 µg, the Activity [2] is reported as 27.4 µg and the Activity [3] is reported as 27.9 µg. For the same molecule, the Activity [4] was 28.2 µg, the Activity [5] was 22.9 µg and the Activity [6] was 17.9 µg. The Activity [7] was 66.1 µg, the Activity [8] was 42.8 µg and the Activity [9] was 28.4 µg. The Activity [10] was 32.2 µg, the Activity [11] was 31.7 µg and the Activity [12] was 26.8 µg. The Activity [13] was “Active”, the Activity [14] was “Active” and the Activity [15] was “inactive”. For the same molecule, the Activity [16] was “inactive”, the Activity [17] was “inactive” and the Activity [18] was “inactive”. The Activity [19] was “inactive”, the Activity [20] was “inactive” and the Activity [21] was “inactive”. The Activity [22] was “Active”, the Activity [23] was “Active” and the Activity [24] was “Active”. The Activity [25] was “inactive”, the Activity [26] was “Active” and the growth, % of control at 1000 µM [27] was 64.9%. For the same molecule, the growth, % of control at 1000 µM [28] was 60.9%, the growth, % of control at 1000 µM [29] was 62% and the growth, % of control at 1000 µM [30] was 59.6%. The growth, % of control at 100 µM [31] was 83.7%, the growth, % of control at 100 µM [32] was 88.2% and the growth, % of control at 100 µM [33] was 80.9%. It also gave a growth, % of control at 100 µM [34] of 84.7%.
